“Also recorded” adds a separate entry of the source.
Experiment: Phase 1/2 clinical study: safety, treatment-emergent adverse events
Assay type: in vivo
Experimental: This study includes monotherapy as well as combination treatment parts. The monotherapy part includes Phase 1 dose escalation and dose expansion as well as Phase 2. […] Phase 1 dose escalation will proceed prior to start of Phase 1b or Phase 2. Once a recommended Phase 2 dose (RP2D) is identified in Phase 1, enrollment can commence to the Phase 1b combination therapies and Phase 2 monotherapy cohorts.
Dose escalation will follow a 3+3 design starting with a 25 mg QD dose (followed by 50 mg QD (dose level cohort 2), 100 mg QD (dose level cohort 3), 150 mg QD (dose level cohort 4), 200 mg QD (dose level cohort 5), 250 mg QD (dose level cohort 6), and 300 mg QD (dose level cohort 7)). Cycle length will be 28 days.
Any toxicity, regardless of the NCI CTCAE v.5 grade, resulting in discontinuation, does reduction or considered a DLT unless the SRC determines the toxicity if clearly unrelated to study drug (i.e., related to the patient's underlying disease other medical condition or concomitant medications).

SMILES: COc1ccc(F)cc1C(=O)NCc1ccc(-c2nn([C@@H](C)C(F)(F)F)c(N)c2C(N)=O)cc1 [BTK-I, (S)-5-amino-3-(4-((5-fluoro-2-methoxybenzamido)methyl)phenyl)-1-(1,1,1-trifluoropropane-2-yl)-1H-pyrazole-4-carboxamide]
- Abdominal pain (TEAE) (25 mg QD (N = 5)): 1 (20.0) n(%)
- Anaemia (TEAE) (25 mg QD (N = 5)): 0 (0.0) n(%)
- Back pain (TEAE) (25 mg QD (N = 5)): 0 (0.0) n(%)
- Constipation (TEAE) (25 mg QD (N = 5)): 0 (0.0^ n(%)
- Contusion (TEAE) (25 mg QD (N = 5)): 0 (0.0) n(%)
- Cough (TEAE) (25 mg QD (N = 5)): 3 (60.0) n(%)
- Diarrhoea (TEAE) (25 mg QD (N = 5)): 3 (60.0) n(%)
- Dizziness (TEAE) (25 mg QD (N = 5)): 2 (40.0) n(%)
- Dyspnoea (TEAE) (25 mg QD (N = 5)): 0 (0.0) n(%)
- Fatigue (TEAE) (25 mg QD (N = 5)): 3 (60.0) n(%)
- Headache (TEAE) (25 mg QD (N = 5)): 2 (40.0) n(%)
- Nausea (TEAE) (25 mg QD (N = 5)): 2 (40.0) n(%)
- Neutropenia (TEAE) (25 mg QD (N = 5)): 0 (0.0) n(%)
- Neutrophil count decreased (TEAE) (25 mg QD (N = 5)): 1 (20.0) n(%)
- Oedema peripheral (TEAE) (25 mg QD (N = 5)): 1 (20.0) n(%)
- Rash maculopapular (TEAE) (25 mg QD (N = 5)): 0 (0.0) n(%)
- Subjects with Any TEAEs (25 mg QD (N = 5)): 5 (100.0) n(%)
- Upper respiratory tract infection (TEAE) (25 mg QD (N = 5)): 1 (20.0) n(%)
- dose limiting toxicities (25 mg to 300 mg QD): no dose limiting toxicities or dose reductions; also recorded: DLTS have not been observed
- Abdominal pain (TEAE) (50 mg QD (N = 6)): 0 (0.0) n(%)
- Anaemia (TEAE) (50 mg QD (N = 6)): 0 (0.0) n(%)
- Back pain (TEAE) (50 mg QD (N = 6)): 0 (0.0) n(%)
- Constipation (TEAE) (50 mg QD (N = 6)): 0 (0.0) n(%)
- Contusion (TEAE) (50 mg QD (N = 6)): 2 (33.3) n(%)
- Cough (TEAE) (50 mg QD (N = 6)): 2 (33.3) n(%)
- Diarrhoea (TEAE) (50 mg QD (N = 6)): 1 (16.7) n(%)
- Dizziness (TEAE) (50 mg QD (N = 6)): 0 (0.0) n(%)
- Dyspnoea (TEAE) (50 mg QD (N = 6)): 0 (0.0) n(%)
- Fatigue (TEAE) (50 mg QD (N = 6)): 3 (50.0) n(%)
- Headache (TEAE) (50 mg QD (N = 6)): 1 (16.7) n(%)
- Nausea (TEAE) (50 mg QD (N = 6)): 2 (33.3) n(%)
- Neutropenia (TEAE) (50 mg QD (N = 6)): 1 (16.7) n(%)
- Neutrophil count decreased (TEAE) (50 mg QD (N = 6)): 0 (0.0) n(%)
- Oedema peripheral (TEAE) (50 mg QD (N = 6)): 1 (16.7) n(%)
- Pyrexia (TEAE) (50 mg QD (N = 6)): 0 (0.0) n(%)
- Rash maculopapular (TEAE) (50 mg QD (N = 6)): 0 (0.0) n(%)
- Subjects with Any TEAEs (50 mg QD (N = 6)): 6 (100.0) n(%)
- Upper respiratory tract infection (TEAE) (50 mg QD (N = 6)): 3 (50.0) n(%)
- Abdominal pain (TEAE) (100 mg QD (N = 9)): 2 (2.2) n(%)
- Anaemia (TEAE) (100 mg QD (N = 9)): 2 (22.2) n(%)
- Back pain (TEAE) (100 mg QD (N = 9)): 0 (0.0) n(%)
- Constipation (TEAE) (100 mg QD (N = 9)): 0 (0.0) n(%)
- Contusion (TEAE) (100 mg QD (N = 9)): 0 (0.0) n(%)
- Cough (TEAE) (100 mg QD (N = 9)): 0 (0.0) n(%)
- Diarrhoea (TEAE) (100 mg QD (N = 9)): 3 (33.3) n(%)
- Dizziness (TEAE) (100 mg QD (N = 9)): 1 (11.1) n(%)
- Dyspnoea (TEAE) (100 mg QD (N = 9)): 2 (22.2) n(%)
- Fatigue (TEAE) (100 mg QD (N = 9)): 2 (22.2) n(%)
- Headache (TEAE) (100 mg QD (N = 9)): 1 (11.1) n(%)
- Nausea (TEAE) (100 mg QD (N = 9)): 1 (11.1) n(%)
- Neutropenia (TEAE) (100 mg QD (N = 9)): 0 (0.0) n(%)
- Neutrophil count decreased (TEAE) (100 mg QD (N = 9)): 0 (0.0) n(%)
- Oedema peripheral (TEAE) (100 mg QD (N = 9)): 0 (0.0) n(%)
- Pyrexia (TEAE) (100 mg QD (N = 9)): 1 (11.1) n(%)
- Rash maculopapular (TEAE) (100 mg QD (N = 9)): 1 (11.1) n(%)
- Subjects with Any TEAEs (100 mg QD (N = 9)): 8 (88.9) n(%)
- Upper respiratory tract infection (TEAE) (100 mg QD (N = 9)): 1 (11.1) n(%)
- Abdominal pain (TEAE) (150 mg QD (N = 20)): 1 (5.0) n(%)
- Anaemia (TEAE) (150 mg QD (N = 20)): 3 (15.0) n(%)
- Back pain (TEAE) (150 mg QD (N = 20)): 5 (25.0) n(%)
- Constipation (TEAE) (150 mg QD (N = 20)): 5 (25.0) n(%)
- Contusion (TEAE) (150 mg QD (N = 20)): 3 (15.0) n(%)
- Cough (TEAE) (150 mg QD (N = 20)): 3 (15.0) n(%)
- Diarrhoea (TEAE) (150 mg QD (N = 20)): 5 (25.0) n(%)
- Dizziness (TEAE) (150 mg QD (N = 20)): 2 (10.0) n(%)
- Dyspnoea (TEAE) (150 mg QD (N = 20)): 2 (10.0) n(%)
- Fatigue (TEAE) (150 mg QD (N = 20)): 3 (15.0) n(%)
- Headache (TEAE) (150 mg QD (N = 20)): 4 (20.0) n(%)
- Nausea (TEAE) (150 mg QD (N = 20)): 1 (5.0) n(%)
- Neutropenia (TEAE) (150 mg QD (N = 20)): 4 (20.0) n(%)
- Neutrophil count decreased (TEAE) (150 mg QD (N = 20)): 3 (15.0) n(%)
- Oedema peripheral (TEAE) (150 mg QD (N = 20)): 3 (15.0) n(%)
- Pyrexia (TEAE) (150 mg QD (N = 20)): 1 (5.0) n(%)
- Rash maculopapular (TEAE) (150 mg QD (N = 20)): 2 (10.0) n(%)
- Subjects with Any TEAEs (150 mg QD (N = 20)): 20 (100.0) n(%)
- Upper respiratory tract infection (TEAE) (150 mg QD (N = 20)): 7 (35.0) n(%)
- Abdominal pain (TEAE) (200 mg QD (N = 238)): 14 (5.9) n(%)
- Anaemia (TEAE) (200 mg QD (N = 238)): 16 (6.7) n(%)
- Back pain (TEAE) (200 mg QD (N = 238)): 14 (5.9) n(%)
- Constipation (TEAE) (200 mg QD (N = 238)): 14 (5.9) n(%)
- Contusion (TEAE) (200 mg QD (N = 238)): 28 (11.8) n(%)
- Cough (TEAE) (200 mg QD (N = 238)): 15 (6.3) n(%)
- Diarrhoea (TEAE) (200 mg QD (N = 238)): 33 (13.9) n(%)
- Dizziness (TEAE) (200 mg QD (N = 238)): 10 (4.2) n(%)
- Dyspnoea (TEAE) (200 mg QD (N = 238)): 16 (6.7) n(%)
- Fatigue (TEAE) (200 mg QD (N = 238)): 39 (16.4) n(%)
- Headache (TEAE) (200 mg QD (N = 238)): 14 (5.9) n(%)
- Nausea (TEAE) (200 mg QD (N = 238)): 16 (6.7) n(%)
- Neutropenia (TEAE) (200 mg QD (N = 238)): 15 (6.3) n(%)
- Neutrophil count decreased (TEAE) (200 mg QD (N = 238)): 10 (4.2) n(%)
- Oedema peripheral (TEAE) (200 mg QD (N = 238)): 14 (5.9) n(%)
- Pyrexia (TEAE) (200 mg QD (N = 238)): 17 (7.1) n(%)
- Rash maculopapular (TEAE) (200 mg QD (N = 238)): 12 (5.0) n(%)
- Upper respiratory tract infection (TEAE) (200 mg QD (N = 238)): 3 (1.3) n(%)
- Abdominal pain (TEAE) (250 mg QD (N = 25)): 0 (0.0) n(%)
- Anaemia (TEAE) (250 mg QD (N = 25)): 2 (8.0) n(%)
- Back pain (TEAE) (250 mg QD (N = 25)): 3 (2.0) n(%)
- Constipation (TEAE) (250 mg QD (N = 25)): 3 (12.0) n(%)
- Contusion (TEAE) (250 mg QD (N = 25)): 5 (20.0) n(%)
- Cough (TEAE) (250 mg QD (N = 25)): 3 (12.0) n(%)
- Diarrhoea (TEAE) (250 mg QD (N = 25)): 5 (20.0) n(%)
- Dizziness (TEAE) (250 mg QD (N = 25)): 1 (4.0) n(%)
- Dyspnoea (TEAE) (250 mg QD (N = 25)): 2 (8.0) n(%)
- Fatigue (TEAE) (250 mg QD (N = 25)): 10 (40.0) n(%)
- Headache (TEAE) (250 mg QD (N = 25)): 3 (12.0) n(%)
- Nausea (TEAE) (250 mg QD (N = 25)): 5 (20.0) n(%)
- Neutropenia (TEAE) (250 mg QD (N = 25)): 1 (4.0) n(%)
- Oedema peripheral (TEAE) (250 mg QD (N = 25)): 2 (8.0) n(%)
- Pyrexia (TEAE) (250 mg QD (N = 25)): 2 (8.0) n(%)
- Rash maculopapular (TEAE) (250 mg QD (N = 25)): 2 (8.0) n(%)
- Subjects with Any TEAEs (250 mg QD (N = 25)): 25 (100.0) n(%)
- Upper respiratory tract infection (TEAE) (250 mg QD (N = 25)): 6 (24.0) n(%)
- Abdominal pain (TEAE) (Overall (N = 323)): 20 (6.2) n (%)
- Anaemia (TEAE) (Overall (N = 323)): 24 (7.4) n (%)
- Back pain (TEAE) (Overall (N = 323)): 25 (7.7) n (%)
- Constipation (TEAE) (Overall (N = 323)): 25 (7.7) n (%)
- Contusion (TEAE) (Overall (N = 323)): 42 (13.0) n (%)
- Cough (TEAE) (Overall (N = 323)): 29 (9.0) n (%)
- Diarrhoea (TEAE) (Overall (N = 323)): 55 (17.0) n (%)
- Dizziness (TEAE) (Overall (N = 323)): 18 (5.6) n (%)
- Dyspnoea (TEAE) (Overall (N = 323)): 26 (8.0) n (%)
- Fatigue (TEAE) (Overall (N = 323)): 65 (20.1) n (%)
- Headache (TEAE) (Overall (N = 323)): 29 (9.0) n (%)
- Nausea (TEAE) (Overall (N = 323)): 30 (9.3) n (%)
- Neutropenia (TEAE) (Overall (N = 323)): 24 (7.4) n (%)
- Neutrophil count decreased (TEAE) (Overall (N = 323)): 22 (6.8) n (%)
- Oedema peripheral (TEAE) (Overall (N = 323)): 22 (6.8) n (%)
- Pyrexia (TEAE) (Overall (N = 323)): 23 (7.1) n (%)
- Rash maculopapular (TEAE) (Overall (N = 323)): 20 (6.2) n (%)
- Subjects with Any TEAEs (Overall (N = 323)): 264 (81.7) n (%)
- Upper respiratory tract infection (TEAE) (Overall (N = 323)): 23 (7.1) n (%)
- rates of atrial arrhythmias and major bleeding (human, in vivo): low rates
- tolerability in patients (human, in vivo): appeared to be well tolerated
- contusion, treatment emergent adverse event regardless of attribution or grade (n=42 of 323 patients): 13%
- diarrhea, treatment emergent adverse event regardless of attribution or grade (n=55 of 323 patients): 17%
- fatigue, treatment emergent adverse event regardless of attribution or grade (n=65 of 323 patients): 20%
- maximum tolerated dose (MTD) (up to 300 mg QD): lack of an MTD
